{"source": "the supplement of paper PMC10307832", "experiment_in_all_cases": "relative viability (nuclei count vs DMSO), 5 days (fraction); higher = more cells survive", "key": {"LCLC-97TM1": {"tested_on": "LCLC-97TM1", "outline": "(§1)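 After 5 days of treatment, lung cancer cells in 1536-well plates were fixed and stained in a single step (final 0.05% Triton X-100, 1% formaldehyde, 1 ug/ml Hoechst) and their nuclei counted on 4× images. Treatment had been applied by pin tool the day after seeding as one drug alone or as a fixed anchor-drug dose with five library-drug doses (not always all listed) in √10 steps. Relative viability is the nuclei count of treated wells divided by that of vehicle wells, and values are medians of duplicate plates.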"}, "NCI-H1734": {"tested_on": "NCI-H1734", "outline": "as §1"}, "SW 900": {"tested_on": "SW 900", "outline": "as §1"}, "SW 1573": {"tested_on": "SW 1573", "outline": "as §1"}, "LC-2-ad": {"tested_on": "LC-2-ad", "outline": "as §1"}, "NCI-H1563": {"tested_on": "NCI-H1563", "outline": "as §1"}, "NCI-H2023": {"tested_on": "NCI-H2023", "outline": "as §1"}, "HCC-44": {"tested_on": "HCC-44", "outline": "as §1"}, "NCI-H520": {"tested_on": "NCI-H520", "outline": "as §1"}, "UMC-11": {"tested_on": "UMC-11", "outline": "as §1"}, "COR-L 105": {"tested_on": "COR-L 105", "outline": "as §1"}, "NCI-H2342": {"tested_on": "NCI-H2342", "outline": "as §1"}, "NCI-H1792": {"tested_on": "NCI-H1792", "outline": "as §1"}, "NCI-H838": {"tested_on": "NCI-H838", "outline": "as §1"}, "A-427": {"tested_on": "A-427", "outline": "as §1"}, "CAL-12T": {"tested_on": "CAL-12T", "outline": "as §1"}, "NCI-H1915": {"tested_on": "NCI-H1915", "outline": "as §1"}, "EPLC-272H": {"tested_on": "EPLC-272H", "outline": "as §1"}, "NCI-H1975": {"tested_on": "NCI-H1975", "outline": "as §1"}, "HCC-15": {"tested_on": "HCC-15", "outline": "as §1"}, "NCI-H1395": {"tested_on": "NCI-H1395", "outline": "as §1"}, "NCI-H2347": {"tested_on": "NCI-H2347", "outline": "as §1"}, "NCI-H2405": {"tested_on": "NCI-H2405", "outline": "as §1"}}}
{"compound": "CN1CCN(CCOc2cc(OC3CCOCC3)c3c(Nc4c(Cl)ccc5c4OCO5)ncnc3c2)CC1", "note": "[Saracatinib] + N=C(N)NC(=N)NCCc1ccccc1 [Phenformin] (partner 250 µM)", "values": [{"measurement": "relative viability", "setting": "LCLC-97TM1; first compound 0.02 µM", "value": 0.461}, {"measurement": "relative viability", "setting": "LCLC-97TM1; first compound 0.2 µM", "value": 0.399}, {"measurement": "relative viability", "setting": "LCLC-97TM1; first compound 0.6325 µM", "value": 0.469}, {"measurement": "relative viability", "setting": "LCLC-97TM1; first compound 2 µM", "value": 0.413}, {"measurement": "relative viability", "setting": "NCI-H1734; first compound 0.02 µM", "value": 0.375}, {"measurement": "relative viability", "setting": "NCI-H1734; first compound 0.6325 µM", "value": 0.375}, {"measurement": "relative viability", "setting": "NCI-H1734; first compound 2 µM", "value": 0.308}, {"measurement": "relative viability", "setting": "SW 900; first compound 0.02 µM", "value": 0.756}, {"measurement": "relative viability", "setting": "SW 900; first compound 0.2 µM", "value": 0.36}, {"measurement": "relative viability", "setting": "SW 900; first compound 0.6325 µM", "value": 0.493}, {"measurement": "relative viability", "setting": "SW 900; first compound 2 µM", "value": 0.47}, {"measurement": "relative viability", "setting": "SW 1573; first compound 0.02 µM", "value": 0.537}, {"measurement": "relative viability", "setting": "SW 1573; first compound 0.2 µM", "value": 0.382}, {"measurement": "relative viability", "setting": "SW 1573; first compound 0.6325 µM", "value": 0.313}, {"measurement": "relative viability", "setting": "SW 1573; first compound 2 µM", "value": 0.313}, {"measurement": "relative viability", "setting": "LC-2-ad; first compound 0.02 µM", "value": 0.588}, {"measurement": "relative viability", "setting": "LC-2-ad; first compound 0.2 µM", "value": 0.554}, {"measurement": "relative viability", "setting": "LC-2-ad; first compound 0.6325 µM", "value": 0.652}, {"measurement": "relative viability", "setting": "LC-2-ad; first compound 2 µM", "value": 0.546}, {"measurement": "relative viability", "setting": "NCI-H1563; first compound 0.02 µM", "value": 0.615}, {"measurement": "relative viability", "setting": "NCI-H1563; first compound 0.2 µM", "value": 0.63}, {"measurement": "relative viability", "setting": "NCI-H1563; first compound 0.6325 µM", "value": 0.603}, {"measurement": "relative viability", "setting": "NCI-H1563; first compound 2 µM", "value": 0.572}, {"measurement": "relative viability", "setting": "NCI-H2023; first compound 0.02 µM", "value": 0.448}, {"measurement": "relative viability", "setting": "NCI-H2023; first compound 0.2 µM", "value": 0.303}, {"measurement": "relative viability", "setting": "NCI-H2023; first compound 0.6325 µM", "value": 0.236}, {"measurement": "relative viability", "setting": "NCI-H2023; first compound 2 µM", "value": 0.257}, {"measurement": "relative viability", "setting": "HCC-44; first compound 0.02 µM", "value": 0.316}, {"measurement": "relative viability", "setting": "HCC-44; first compound 0.2 µM", "value": 0.227}, {"measurement": "relative viability", "setting": "HCC-44; first compound 0.6325 µM", "value": 0.333}, {"measurement": "relative viability", "setting": "HCC-44; first compound 2 µM", "value": 0.199}, {"measurement": "relative viability", "setting": "NCI-H520; first compound 0.02 µM", "value": 0.687}, {"measurement": "relative viability", "setting": "NCI-H520; first compound 0.6325 µM", "value": 0.441}, {"measurement": "relative viability", "setting": "NCI-H520; first compound 2 µM", "value": 0.291}, {"measurement": "relative viability", "setting": "UMC-11; first compound 0.02 µM", "value": 0.341}, {"measurement": "relative viability", "setting": "UMC-11; first compound 0.6325 µM", "value": 0.32}, {"measurement": "relative viability", "setting": "UMC-11; first compound 2 µM", "value": 0.232}, {"measurement": "relative viability", "setting": "COR-L 105; first compound 0.02 µM", "value": 0.586}, {"measurement": "relative viability", "setting": "COR-L 105; first compound 0.2 µM", "value": 0.532}, {"measurement": "relative viability", "setting": "COR-L 105; first compound 0.6325 µM", "value": 0.438}, {"measurement": "relative viability", "setting": "COR-L 105; first compound 2 µM", "value": 0.256}, {"measurement": "relative viability", "setting": "NCI-H2342; first compound 0.02 µM", "value": 0.702}, {"measurement": "relative viability", "setting": "NCI-H2342; first compound 0.2 µM", "value": 0.529}, {"measurement": "relative viability", "setting": "NCI-H2342; first compound 0.6325 µM", "value": 0.673}, {"measurement": "relative viability", "setting": "NCI-H2342; first compound 2 µM", "value": 0.505}, {"measurement": "relative viability", "setting": "NCI-H1792; first compound 0.02 µM", "value": 0.258}, {"measurement": "relative viability", "setting": "NCI-H1792; first compound 0.2 µM", "value": 0.167}, {"measurement": "relative viability", "setting": "NCI-H1792; first compound 0.6325 µM", "value": 0.241}, {"measurement": "relative viability", "setting": "NCI-H1792; first compound 2 µM", "value": 0.405}, {"measurement": "relative viability", "setting": "NCI-H838; first compound 0.02 µM", "value": 0.645}, {"measurement": "relative viability", "setting": "NCI-H838; first compound 0.2 µM", "value": 0.486}, {"measurement": "relative viability", "setting": "NCI-H838; first compound 0.6325 µM", "value": 0.49}, {"measurement": "relative viability", "setting": "NCI-H838; first compound 2 µM", "value": 0.379}, {"measurement": "relative viability", "setting": "A-427; first compound 0.02 µM", "value": 0.352}, {"measurement": "relative viability", "setting": "A-427; first compound 0.2 µM", "value": 0.273}, {"measurement": "relative viability", "setting": "A-427; first compound 0.6325 µM", "value": 0.281}, {"measurement": "relative viability", "setting": "A-427; first compound 2 µM", "value": 0.285}, {"measurement": "relative viability", "setting": "CAL-12T; first compound 0.02 µM", "value": 0.608}, {"measurement": "relative viability", "setting": "CAL-12T; first compound 0.2 µM", "value": 0.639}, {"measurement": "relative viability", "setting": "CAL-12T; first compound 0.6325 µM", "value": 0.595}, {"measurement": "relative viability", "setting": "CAL-12T; first compound 2 µM", "value": 0.506}, {"measurement": "relative viability", "setting": "NCI-H1915; first compound 0.02 µM", "value": 0.374}, {"measurement": "relative viability", "setting": "NCI-H1915; first compound 0.2 µM", "value": 0.333}, {"measurement": "relative viability", "setting": "NCI-H1915; first compound 0.6325 µM", "value": 0.364}, {"measurement": "relative viability", "setting": "NCI-H1915; first compound 2 µM", "value": 0.333}, {"measurement": "relative viability", "setting": "EPLC-272H; first compound 0.02 µM", "value": 0.285}, {"measurement": "relative viability", "setting": "EPLC-272H; first compound 0.2 µM", "value": 0.327}, {"measurement": "relative viability", "setting": "EPLC-272H; first compound 0.6325 µM", "value": 0.319}, {"measurement": "relative viability", "setting": "EPLC-272H; first compound 2 µM", "value": 0.251}, {"measurement": "relative viability", "setting": "NCI-H1975; first compound 0.02 µM", "value": 0.422}, {"measurement": "relative viability", "setting": "NCI-H1975; first compound 0.2 µM", "value": 0.348}, {"measurement": "relative viability", "setting": "NCI-H1975; first compound 0.6325 µM", "value": 0.387}, {"measurement": "relative viability", "setting": "NCI-H1975; first compound 2 µM", "value": 0.32}, {"measurement": "relative viability", "setting": "HCC-15; first compound 0.02 µM", "value": 0.487}, {"measurement": "relative viability", "setting": "HCC-15; first compound 0.2 µM", "value": 0.402}, {"measurement": "relative viability", "setting": "HCC-15; first compound 0.6325 µM", "value": 0.417}, {"measurement": "relative viability", "setting": "HCC-15; first compound 2 µM", "value": 0.329}, {"measurement": "relative viability", "setting": "NCI-H1395; first compound 0.02 µM", "value": 0.434}, {"measurement": "relative viability", "setting": "NCI-H1395; first compound 0.2 µM", "value": 0.455}, {"measurement": "relative viability", "setting": "NCI-H1395; first compound 0.6325 µM", "value": 0.474}, {"measurement": "relative viability", "setting": "NCI-H1395; first compound 2 µM", "value": 0.348}, {"measurement": "relative viability", "setting": "NCI-H2347; first compound 0.02 µM", "value": 0.38}, {"measurement": "relative viability", "setting": "NCI-H2347; first compound 0.2 µM", "value": 0.26}, {"measurement": "relative viability", "setting": "NCI-H2347; first compound 0.6325 µM", "value": 0.377}, {"measurement": "relative viability", "setting": "NCI-H2347; first compound 2 µM", "value": 0.342}, {"measurement": "relative viability", "setting": "NCI-H2405; first compound 0.02 µM", "value": 0.406}, {"measurement": "relative viability", "setting": "NCI-H2405; first compound 0.2 µM", "value": 0.328}, {"measurement": "relative viability", "setting": "NCI-H2405; first compound 0.6325 µM", "value": 0.304}, {"measurement": "relative viability", "setting": "NCI-H2405; first compound 2 µM", "value": 0.185}]}
